The values that follow come from patent publication US10752587B2, “Homobispiperidinyl derivatives as liver X receptor beta agonists, compositions and their use” (Merck Sharp & Dohme Corp., priority 2015, dated 2020).

Like-named read-outs stand apart in the source and are kept apart here.

Experiment [1] deals with T1, glutathione-S-transferase (GST) tagged LXRalpha LBD (ligand binding domain) (Homo sapiens, UniProt Q13133).
T1 construct: purchased Invitrogen pv4655
T1 sequence (Q13133 209-447 limits assumed): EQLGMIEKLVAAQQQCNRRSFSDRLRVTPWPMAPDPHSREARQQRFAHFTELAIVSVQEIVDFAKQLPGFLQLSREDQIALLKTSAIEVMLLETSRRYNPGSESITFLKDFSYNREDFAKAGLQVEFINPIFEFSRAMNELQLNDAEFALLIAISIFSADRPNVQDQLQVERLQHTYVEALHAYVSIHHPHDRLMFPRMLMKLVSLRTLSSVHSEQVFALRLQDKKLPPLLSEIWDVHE
Briefly: LanthaScreen TR-FRET Liver X Receptor Coactivator Assay, co-activator recruitment to LXRalpha LBD. Type of experiment: biochemical. An outline of the steps:
(§1)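 TR-FRET coactivator recruitment; compound + LBD, then fluorescein-coactivator peptide/Tb-anti-GST Ab mix; RT incubation; IP and Emax vs T0901317.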
A general note: In TR-FRET formats the signal depends on donor and acceptor labels being close together.

In experiment [2] the target is T2, glutathione-S-transferase (GST) tagged LXRbeta LBD (ligand binding domain) (Homo sapiens, UniProt P55055).
T2 construct: purchased Invitrogen pv4658.pps
T2 sequence (P55055 222-460 limits assumed): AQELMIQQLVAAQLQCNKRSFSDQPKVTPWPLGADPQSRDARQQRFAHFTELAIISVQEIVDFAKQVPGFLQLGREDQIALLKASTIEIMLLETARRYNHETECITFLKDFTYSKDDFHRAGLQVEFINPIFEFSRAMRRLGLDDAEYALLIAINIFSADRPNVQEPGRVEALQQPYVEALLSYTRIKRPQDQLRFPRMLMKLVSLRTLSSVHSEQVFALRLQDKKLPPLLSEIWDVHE
Briefly: LanthaScreen TR-FRET Liver X Receptor Coactivator Assay, co-activator recruitment to LXRbeta LBD. Type of experiment: biochemical. A digest of the protocol:
as §1

[3] abbreviates: efficacy at max dose, in relation to reference dual agonist T0901317, read-out: LXR alpha Activity @ max dose (%).
The mark [4] stands for this setting: potency (Inflection Point, IP), co-activator recruitment to LXRalpha LBD, in relation to T0901317.
Where [5] appears, read: efficacy at max dose, in relation to reference dual agonist T0901317, read-out: LXR beta Activity @ max dose (%).
Setting [6] is: potency (Inflection Point, IP), co-activator recruitment to LXRbeta LBD, in relation to T0901317, read-out: LXR beta IP.
Setting [7] is: co-activator recruitment to GST-LXRalpha LBD, TR-FRET.
The mark [8] stands for this setting: efficacy in relation to reference dual agonist T0901317, read-out: LXR alpha Activity @ max dose.
The mark [9] stands for this setting: co-activator recruitment to GST-LXRbeta LBD, TR-FRET, read-out: LXR beta IP (Inflection Point, potency).
The mark [10] stands for this setting: efficacy in relation to reference dual agonist T0901317, read-out: LXR beta Activity @ max dose.
[11] abbreviates: efficacy at max dose, in relation to reference dual agonist T0901317.
Where [12] appears, read: potency (Inflection Point, IP), co-activator recruitment to LXRalpha LBD, in relation to T0901317, read-out: LXR alpha IP.

`CCc1cccc([C@@](O)(C(=O)N2CCC(C)(CC3CCN(c4ccc(C(=O)N(C)C)c(Cl)n4)CC3)CC2)C(F)(F)F)c1` [Example 7-49, 2-chloro-6-[4-({1-[(2R)-2-(3-ethylphenyl)-3,3,3-trifluoro-2-hydroxypropanoyl]-4-methylpiperidin-4-yl}methyl)piperidin-1-yl]-N,N-dimethylpyridine-3-carboxamide]: the Emax amounted to 8% in experiment [1] (setting [3]) and 40% in experiment [2] (setting [5]). For the same compound, the “LXR alpha IP (nM)” value in experiment [1] (setting [4]) is “NO IP”. The EC50 in experiment [2] (setting [6]) is 6 nM.

Take `CN(C)C(=O)c1ccc(N2CCC(CC3CCN(S(=O)(=O)c4cccc(OC(F)(F)F)c4)CC3)CC2)cc1Cl` [Example 13-16]: the “LXR alpha IP (Inflection Point, potency)” value in experiment [1] (setting [7]) is given as “NO IP”. For the same compound, the Emax in experiment [1] (setting [8]) came to 0%; in experiment [2] (setting [10]), 35%. Besides, in experiment [2] (setting [9]), the EC50 stood at 135 nM.

As for `CN(C)C(=O)c1ccc(N2CCC(CC3CCN(C(=O)[C@](O)(c4cc(Cl)cc(Cl)c4)C(F)(F)F)CC3)CC2)cc1` [Example 2-142, 4-[4-({1-[(2R)-2-(3,5-dichloro-phenyl)-3,3,3-trifluoro-2-hydroxy-propanoyl]piperidin-4-yl}methyl)piperidin-1-yl]-N,N-dimethyl-benzamide], the “LXR alpha Activity @ max dose (%)” value in experiment [1] (setting [11]) is 4%. Further, the “LXR alpha IP (nM)” value in experiment [1] (setting [4]) is given as “NO IP”. Moreover, the “LXR beta Activity @ max dose (%)” value in experiment [2] (setting [11]) turned out to be 60%. For the same compound, the EC50 in experiment [2] (setting [6]) was 60 nM.

Regarding `CN(C)C(=O)c1ccc(N2CCC(CC3CCN(C(=O)[C@](O)(c4ccccc4)C(F)(F)C(F)(F)F)CC3)CC2)cc1Cl` [Example 2-14, 2-chloro-N,N-dimethyl-4-[4-({1-[(2R)-3,3,4,4,4-pentafluoro-2-hydroxy-2-phenylbutanoyl]piperidin-4-yl}methyl)piperidin-1-yl]benzamide], the “LXR alpha Activity @ max dose (%)” value in experiment [1] (setting [11]) came out at 14%. Further, the “LXR alpha IP (nM)” value in experiment [1] (setting [4]) was “NO IP”. Besides, the “LXR beta Activity @ max dose (%)” value in experiment [2] (setting [11]) was 89%.

Regarding `CN(C)C(=O)c1ccc(N2CCC(CC3CCN(S(=O)(=O)c4cccc(OC(F)F)c4)CC3)CC2)cc1Cl` [Example 13-10, 2-chloro-4-{4[(1-{[3-(difluoromethoxy)-phenyl]sulfonyl}-piperidin-4-yl)methyl]-piperidin-1-yl}-N,N-dimethylbenzamide], the “LXR alpha IP (Inflection Point, potency)” value in experiment [1] (setting [7]) is listed as “NO IP”. Moreover, the Emax in experiment [1] (setting [8]) was 5%; in experiment [2] (setting [10]) it was 52%. In experiment [2] (setting [9]), the EC50 came out at 104 nM.

Regarding `CNC(=O)c1ccc(N2CCC(CC3CCN(C(=O)[C@](O)(c4cccc(C)c4)C(F)(F)F)CC3)CC2)nc1Cl` [Example 7-151, 2-chloro-N-methyl-6-[4-({1-[(2R)-3,3,3-trifluoro-2-hydroxy-2-(3-methylphenyl)propanoyl]piperidin-4-yl}methyl)piperidin-1-yl]pyridine-3-carboxamide], the values for the Emax in experiment [1] (setting [3]) and in experiment [2] (setting [5]) were 34% and 81%, respectively. Also, the EC50 in experiment [1] (setting [12]) was found to be 121 nM; in experiment [2] (setting [6]), 7 nM.

Consider `CNC(=O)c1ccc(N2CCC(CC3CCN(C(=O)[C@](O)(c4cccc(OC(C)C)c4)C(F)(F)F)CC3)CC2)nc1Cl` [Example 7-136, 2-chloro-N-methyl-6-{4-[(1-{(2R)-3,3,3-trifluoro-2-hydroxy-2-[3-(1-methylethoxy)phenyl]propanoyl}piperidin-4-yl)methyl]piperidin-1-yl}pyridine-3-carboxamide], for which the Emax worked out at 6% in experiment [1] (setting [3]) and 86% in experiment [2] (setting [5]). In experiment [1] (setting [4]), the “LXR alpha IP (nM)” value is “NO IP”. In experiment [2] (setting [6]), the EC50 stood at 14 nM.

For `COc1cccc([C@@](N)(C(=O)N2CCC(CC3CCN(c4ccc(C(=O)N(C)C)c(Cl)c4)CC3)CC2)C(F)(F)F)c1` [Example 2-103, 4-[4-({1-[(2R)-2-amino-3,3,3-trifluoro-2-(3-methoxyphenyl)propanoyl]piperidin-4-yl}methyl)piperidin-1-yl]-2-chloro-N,N-dimethyl-benzamide], the Emax in experiment [1] (setting [3]) is 0%; in experiment [2] (setting [5]), 16%. In addition, the “LXR alpha IP (nM)” value in experiment [1] (setting [4]) is listed as “NO IP”. Further, the EC50 in experiment [2] (setting [6]) is 181 nM.

With `O=C(c1ccc(N2CCC(CC3CCN(C(=O)[C@](O)(c4ccccc4)C(F)(F)F)CC3)CC2)cc1Cl)N1CCC(c2ccncc2)C1` (stereo partly drawn) [Example 4-17, (2R)-3-{4-[(1-{3-chloro-4-[(3-pyridin-4-ylpyrrolidin-1-yl)carbonyl]phenyl}piperidin-4-yl)methyl]piperidin-1-yl}-1,1,1-trifluoro-3-oxo-2-phenylpropan-2-ol], the Emax in experiment [1] (setting [3]) turned out to be 27%; in experiment [2] (setting [5]), 45%. Further, the EC50 is 1020 nM in experiment [1] (setting [12]) and 270 nM in experiment [2] (setting [6]).

Consider `CNC(=O)c1ccc(N2CCC(CC3CCN(C(=O)[C@](O)(c4cccc(OC)c4)C(F)(F)F)CC3)CC2)cc1Cl` [Example 7-127, 2-chloro-N-methyl-4-[4-({1-[(2R)-3,3,3-trifluoro-2-hydroxy-2-(3-methoxyphenyl)propanoyl]piperidin-4-yl}methyl)piperidin-1-yl]benzamide], for which the “LXR alpha Activity @ max dose (%)” value in experiment [1] (setting [11]) is recorded as 7%. In addition, the “LXR alpha IP (nM)” value in experiment [1] (setting [4]) is given as “NO IP”. In experiment [2] (setting [11]), the “LXR beta Activity @ max dose (%)” value was found to be 60%. Further, the EC50 in experiment [2] (setting [6]) is 19 nM.

Consider `CNC(=O)c1ccc(N2CCC(CC3CCN(C(=O)[C@](O)(c4cc(F)cc(OC)c4)C(F)(F)F)CC3)CC2)cc1Cl` [Example 7-118, 2-chloro-N-methyl-4-[4-({1-[(2R)-3,3,3-trifluoro-2-(3-fluoro-5-methoxyphenyl)-2-hydroxypropanoyl]piperidin-4-yl}methyl)piperidin-1-yl]benzamide], for which the Emax in experiment [1] (setting [3]) amounted to 20%; in experiment [2] (setting [5]) it was 98%. For the same compound, the EC50 in experiment [1] (setting [12]) was 243 nM; in experiment [2] (setting [6]), 7 nM.

As for `Cc1cccc([C@@](O)(C(=O)N2CCC(CC3CCN(c4ccc(C(=O)N(C)C)c(C)c4)CC3)CC2)C(F)(F)F)c1` [Example 2-157, N,N,2-trimethyl-4-[4-({1-[(2R)-3,3,3-trifluoro-2-hydroxy-2-(3-methylphenyl)propanoyl]piperidin-4-yl}methyl)piperidin-1-yl]benzamide], the results for the Emax in experiment [1] (setting [3]) and in experiment [2] (setting [5]) were 9% and 43%, respectively. Also, the “LXR alpha IP (nM)” value in experiment [1] (setting [4]) is recorded as “NO IP”. Further, the EC50 in experiment [2] (setting [6]) is 16 nM.

Consider `CN(C)C(=O)c1ccc(N2[C@@H]3CC[C@H]2CN(CC2CCN(C(=O)[C@](O)(c4ccccc4)C(F)(F)F)CC2)C3)cc1Cl` [Example 6-3, 2-chloro-N,N-dimethyl-4-[(1R,5S)-3-({1-[(2R)-3,3,3-trifluoro-2-hydroxy-2-phenylpropanoyl]piperidin-4-yl}methyl)-3,8-diazabicyclo[3.2.1]oct-8-yl]benzamide], for which the Emax in experiment [1] (setting [3]) is 18%; in experiment [2] (setting [5]) it was 37%. In experiment [1] (setting [4]), the “LXR alpha IP (nM)” value is on record as “NO IP”. Moreover, the EC50 in experiment [2] (setting [6]) worked out at 2550 nM.

As for `CN(C)C(=O)c1ccc(N2CCC(CC3CCN(S(=O)(=O)c4cccs4)CC3)CC2)cc1Cl` [Example 13-4, 2-chloro-N,N-dimethyl-4-(4-{[1-(thiopen-2-ylsulfonyl)piperidin-4-yl]methyl}piperidin-1-yl)benzamide], the EC50 in experiment [1] (co-activator recruitment to GST-LXRalpha LBD, TR-FRET, read-out: LXR alpha IP (Inflection Point, potency)) came out at 264 nM; in experiment [2] (setting [9]), 26 nM. In addition, the Emax amounted to 43% in experiment [1] (setting [8]) and 67% in experiment [2] (setting [10]).

As to `CN(C)C(=O)c1ccc(N2CCC(OC3CCN(C(=O)C(O)(c4cccc(Cl)c4)C(F)(F)F)CC3)CC2)cc1Cl` (stereo not drawn) [Example 2-24, 2-chloro-4-[4-({1-[2-(3-chlorophenyl)-3,3,3-trifluoro-2-hydroxy-propanoyl]piperidin-4-yl}oxy)piperidin-1-yl]-N,N-dimethyl-benzamide], the Emax is 37% in experiment [1] (setting [3]) and 99% in experiment [2] (setting [5]). The EC50 in experiment [1] (setting [12]) was determined as 465 nM; in experiment [2] (setting [6]), 14 nM.

Take `CC(C)Oc1cccc(C(O)(C(=O)N2CCC(CC3CCN(c4ccc(C(=O)N(C)C)c(Cl)c4)CC3)CC2)C(F)(F)F)c1` (stereo not drawn) [Example 2-82, 2-chloro-N,N-dimethyl-4-{4-[(1-{3,3,3-trifluoro-2-hydroxy-2-[3-(1-methyl-ethoxy)phenyl]propanoyl}piperidin-4-yl)methyl]piperidin-1-yl}benzamide]: the Emax turned out to be 13% in experiment [1] (setting [3]) and 50% in experiment [2] (setting [5]). Further, in experiment [1] (setting [4]), the “LXR alpha IP (nM)” value is “NO IP”. Besides, in experiment [2] (setting [6]), the EC50 was found to be 12 nM.
